{
  "source": "patent US20130005721A1",
  "about": "“INDOLIZINE INHIBITORS OF 5-LIPOXYGENASE” (PANMIRA PHARMACEUTICALS, LLC, priority 2009, published 2013)",
  "data": [
    {"test_system": "human leukocytes (LTB4 production, calcium ionophore stimulated)", "experiment": "Human Leukocyte LTB4 Inhibition Assay", "format": "cell-based", "conditions": "Leukocyte, LTB4 by ELISA, read-out: LTB4 HLA IC50", "experimental": "Human Leukocyte LTB4 Inhibition Assay\nA non-limiting example of a human leukocyte inhibition assay is as follows; Blood was drawn from consenting human volunteers into heparanized tubes and 3% dextran 0.9% saline ⅓ rd volume added. After sedimentation of red blood cells a hypotonic lysis of remaining red blood cells was performed and leukocytes sedimented at 1200 rpm. The pellet was resuspended at 1.25×10^5 cells/ml and aliquoted into wells containing 1 μL 100% DMSO (vehicle) or 2.5 μL drug in 100% DMSO. Samples were incubated for 5 minutes at 37° C. and 2 μL calcium ionophore […] (from a 50 mM DMSO stock diluted just prior to the assay in Hanks balanced salt solution (Invitrogen)) to 1.25 mM) was added, solutions mixed and incubated for 30 minutes at 37° C. Samples were centrifuged at 1,200 rpm (−200×g) for 10 minutes at 4° C., plasma removed and a 1:4 dilution assayed for LTB4 concentration using ELISA (Assay Designs). Drug concentrations to achieve 50% inhibition (IC50's) of vehicle LTB4 were determined by nonlinear regression (Graphpad Prism) of % inhibition versus log drug concentration.", "units": {"IC50": "nM"}, "values": [
      {"smiles": "CCOC(=O)c1cc2cc(Cn3cc(C(O)(CC)C(F)(F)F)nn3)ccn2c1-c1ccc(Cl)cc1", "note": "(stereo not shown) [Compound 1-27, 3-(4-Chloro-phenyl)-7-[4-(1-hydroxy-1-trifluoromethyl-propyl)-[1,2,3]triazol-1-ylmethyl]-indolizine-2-carboxylic acid ethyl ester]", "IC50": "< 300"},
      {"smiles": "CCC(O)(c1cn(Cc2ccn3c(C(C)=O)c(C(=O)OC)cc3c2)nn1)C(F)(F)F", "note": "(stereo not shown) [Compound 1-66, 3-Acetyl-7-[4-(1-hydroxy-1-trifluoromethyl-propyl)-[1,2,3]triazol-1-ylmethyl]-indolizine-2-carboxylic acid methyl ester]", "IC50": "< 300"},
      {"smiles": "CCC(O)(c1cn(Cc2ccn3c(-c4cccnc4)c(C#N)cc3c2)nn1)C(F)(F)F", "note": "(stereo not shown) [Compound 1-26, 7-[4-(1-Hydroxy-1-trifluoromethyl-propyl)-[1,2,3]triazol-1-ylmethyl]-3-pyridin-3-yl-indolizine-2-carbonitrile]", "IC50": "< 300"},
      {"smiles": "CCC(O)(c1cn(Cc2ccn3c(-c4ccc(OC)nc4)c(C(N)=O)cc3c2)nn1)C(F)(F)F", "note": "(stereo not shown) [Compound 1-35, 7-[4-(1-Hydroxy-1-trifluoromethyl-propyl)-[1,2,3]triazol-1-ylmethyl]-3-(6-methoxy-pyridin-3-yl)-indolizine-2-carboxylic acid amide]", "IC50": "300 to 1000"},
      {"smiles": "CCC(O)(c1cn(Cc2ccn3c(-c4ccc(F)cc4)c(/C=C/C(N)=O)cc3c2)nn1)C(F)(F)F", "note": "(stereo not shown) [Compound 1-43, (E)-3-{3-(4-Fluoro-phenyl)-7-[4-(1-hydroxy-1-trifluoromethyl-propyl)-[1,2,3]triazol-1-ylmethyl]-indolizin-2-yl}-acrylamide]", "IC50": "< 300"},
      {"smiles": "CCC(O)(c1cn(Cc2ccn3c(-c4ccc(F)nc4)c(C(N)=O)cc3c2)nn1)C(F)(F)F", "note": "(stereo not shown) [Compound 1-31, 3-(6-Fluoro-pyridin-3-yl)-7-[4-(1-hydroxy-1-trifluoromethyl-propyl)-[1,2,3]triazol-1-ylmethyl]-indolizine-2-carboxylic acid amide]", "IC50": "> 1000"},
      {"smiles": "CCOC(=O)c1cc2cc(CNc3nnc(C(O)(CC)C(F)(F)F)o3)ccn2c1-c1ccc(F)cc1", "note": "(stereo not shown) [Compound 1-11, 3-(4-Fluoro-phenyl)-7-{[5-(1-hydroxy-1-trifluoromethyl-propyl)-[1,3,4]oxadiazol-2-ylamino]-methyl}-indolizine-2-carboxylic acid ethyl ester]", "IC50": "< 300"},
      {"smiles": "CCC(O)(c1cn(Cc2ccn3c(C(C)=O)c(C(N)=O)cc3c2)nn1)C(F)(F)F", "note": "(stereo not shown) [Compound 1-67, 3-Acetyl-7-[4-(1-hydroxy-1-trifluoromethyl-propyl)-[1,2,3]triazol-1-ylmethyl]-indolizine-2-carboxylic acid amide]", "IC50": "> 1000"},
      {"smiles": "CCC(O)(c1cn(Cc2ccn3c(-c4ccc(OC)nc4)c(C(N)=O)cc3c2)nn1)C(F)(F)F", "note": "(single isomer, unassigned) [Compound 1-78, 7-[4-(1-Hydroxy-1-trifluoromethyl-propyl)-[1,2,3]triazol-1-ylmethyl]-3-(6-methoxy-pyridin-3-yl)-indolizine-2-carboxylic acid amide]", "IC50": "< 300"},
      {"smiles": "CCC(O)(c1cn(Cc2ccn3c(-c4ccc(Cl)cc4)c(C(N)=O)cc3c2)nn1)C(F)(F)F", "note": "(stereo not shown) [Compound 1-28, 3-(4-Chloro-phenyl)-7-[4-(1-hydroxy-1-trifluoromethyl-propyl)-[1,2,3]triazol-1-ylmethyl]-indolizine-2-carboxylic acid amide]", "IC50": "< 300"},
      {"smiles": "CCC(O)(c1cn(Cc2ccn3c(-c4ccc(F)cc4)c(C(=O)N4CCS(=O)(=O)C4)cc3c2)nn1)C(F)(F)F", "note": "(stereo not shown) [Compound 1-50, (1,1-Dioxo-1λ^6-thiazolidin-3-yl)-{3-(4-fluoro-phenyl)-7-[4-(1-hydroxy-1-trifluoromethyl-propyl)-[1,2,3]triazol-1-ylmethyl]-indolizin-2-yl}-methanone]", "IC50": "> 1000"},
      {"smiles": "CCOC(=O)c1cc2cc(Cn3cc(C(O)(CC)C(F)(F)F)nn3)ccn2c1-c1cnn(C)c1", "note": "(stereo not shown) [Compound 1-74, 7-[4-(1-Hydroxy-1-trifluoromethyl-propyl)-[1,2,3]triazol-1-ylmethyl]-3-(1-methyl-1H-pyrazol-4-yl)-indolizine-2-carboxylic acid ethyl ester]", "IC50": "< 300"},
      {"smiles": "CCC(O)(c1cn(Cc2ccn3c(-c4ccc(F)nc4)c(C#N)cc3c2)nn1)C(F)(F)F", "note": "(stereo not shown) [Compound 1-32, 3-(6-Fluoro-pyridin-3-yl)-7-[4-(1-hydroxy-1-trifluoromethyl-propyl)-[1,2,3]triazol-1-ylmethyl]-indolizine-2-carbonitrile]", "IC50": "< 300"},
      {"smiles": "CCC(O)(c1cn(Cc2ccn3c(-c4ccc(C)nc4)c(C#N)cc3c2)nn1)C(F)(F)F", "note": "(stereo not shown) [Compound 1-72, 7-[4-(1-Hydroxy-1-trifluoromethyl-propyl)-[1,2,3]triazol-1-ylmethyl]-3-(6-methyl-pyridin-3-yl)-indolizine-2-carbonitrile]", "IC50": "< 300"},
      {"smiles": "CCC(O)(c1cn(Cc2ccn3c(-c4ccc(=O)n(C)c4)c(C#N)cc3c2)nn1)C(F)(F)F", "note": "(stereo not shown) [Compound 1-70, 7-[4-(1-Hydroxy-1-trifluoromethyl-propyl)-[1,2,3]triazol-1-ylmethyl]-3-(1-methyl-6-oxo-1,6-dihydro-pyridin-3-yl)-indolizine-2-carbonitrile]", "IC50": "> 1000"},
      {"smiles": "CCOC(=O)c1cc2cc(Cn3cc(C(O)(CC)C(F)(F)F)nn3)ccn2c1-c1cccnc1", "note": "(stereo not shown) [Compound 1-24, 7-[4-(1-Hydroxy-1-trifluoromethyl-propyl)-[1,2,3]triazol-1-ylmethyl]-3-pyridin-3-yl-indolizine-2-carboxylic acid ethyl ester]", "IC50": "< 300"},
      {"smiles": "CCOC(=O)c1cc2cc(Sc3ncc(C(O)(CC)C(F)(F)F)s3)ccn2c1", "note": "(stereo not shown) [Compound 1-1, 7-[5-(1-Hydroxy-1-trifluoromethyl-propyl)-thiazol-2-ylsulfanyl]-indolizine-2-carboxylic acid ethyl ester]", "IC50": "< 300"},
      {"smiles": "CCOC(=O)CCNCc1cc2cc(Cn3cc(C(O)(CC)C(F)(F)F)nn3)ccn2c1-c1ccc(F)cc1", "note": "(stereo not shown) [Compound 1-37, 3-({3-(4-Fluoro-phenyl)-7-[4-(1-hydroxy-1-trifluoromethyl-propyl)-[1,2,3]triazol-1-ylmethyl]-indolizin-2-ylmethyl}-amino)-propionic acid ethyl ester]", "IC50": "< 300"},
      {"smiles": "CCC(O)(c1cn(Cc2ccn3c(Cl)c(C#N)cc3c2)nn1)C(F)(F)F", "note": "(single isomer, unassigned) [Compound 1-88, 3-Chloro-7-[4-(1-hydroxy-1-trifluoromethyl-propyl)-[1,2,3]triazol-1-ylmethyl]-indolizine-2-carbonitrile]", "IC50": "< 300"},
      {"smiles": "CCOC(=O)c1cc2cc(Cn3cc(C(O)(CC)C(F)(F)F)nn3)ccn2c1C(C)C", "note": "(single isomer, unassigned) [Compound 1-77, 7-[4-(1-Hydroxy-1-trifluoromethyl-propyl)-[1,2,3]triazol-1-ylmethyl]-3-isopropyl-indolizine-2-carboxylic acid ethyl ester]", "IC50": "< 300"},
      {"smiles": "CCC(O)(c1cn(Cc2ccn3c(-c4ccc(F)cc4)c(C(N)=O)c(Cl)c3c2)nn1)C(F)(F)F", "note": "(stereo not shown) [Compound 1-61, 1-Chloro-3-(4-fluoro-phenyl)-7-[4-(1-hydroxy-1-trifluoromethyl-propyl)-[1,2,3]triazol-1-ylmethyl]-indolizine-2-carboxylic acid amide]", "IC50": "< 300"},
      {"smiles": "CCC(O)(c1cn(Cc2ccn3c(-c4ccc(F)cc4)c(CNCCC#N)cc3c2)nn1)C(F)(F)F", "note": "(stereo not shown) [Compound 1-42, 3-({3-(4-Fluoro-phenyl)-7-[4-(1-hydroxy-1-trifluoromethyl-propyl)-[1,2,3]triazol-1-ylmethyl]-indolizin-2-ylmethyl}-amino)-propionitrile]", "IC50": "< 300"},
      {"smiles": "CCC(O)(c1cn(Cc2ccn3c(-c4ccc(C)nc4)c(C(N)=O)cc3c2)nn1)C(F)(F)F", "note": "(stereo not shown) [Compound 1-71, 7-[4-(1-Hydroxy-1-trifluoromethyl-propyl)-[1,2,3]triazol-1-ylmethyl]-3-(6-methyl-pyridin-3-yl)-indolizine-2-carboxylic acid amide]", "IC50": "> 1000"},
      {"smiles": "CCNCc1cc2cc(Cn3cc(C(O)(CC)C(F)(F)F)nn3)ccn2c1-c1ccc(F)cc1", "note": "(stereo not shown) [Compound 1-60, 2-{1-[2-Ethylaminomethyl-3-(4-fluoro-phenyl)-indolizin-7-ylmethyl]-1H-[1,2,3]triazol-4-yl}-1,1,1-trifluoro-butan-2-ol]", "IC50": "> 1000"},
      {"smiles": "CCC(OC)(c1cn(Cc2ccn3c(-c4ccc(F)cc4)c(COC)cc3c2)nn1)C(F)(F)F", "note": "(stereo not shown) [Compound 1-45, 3-(4-Fluoro-phenyl)-2-methoxymethyl-7-[4-(1-methoxy-1-trifluoromethyl-propyl)-[1,2,3]triazol-1-ylmethyl]-indolizine]", "IC50": "< 300"},
      {"smiles": "CCC(O)(c1nnc(NCc2ccn3c(-c4ccc(F)cc4)c(C(N)=O)c(Br)c3c2)o1)C(F)(F)F", "note": "(stereo not shown) [Compound 1-17, 1-Bromo-3-(4-fluoro-phenyl)-7-{[5-(1-hydroxy-1-trifluoromethyl-propyl)-[1,3,4]oxadiazol-2-ylamino]-methyl}-indolizine-2-carboxylic acid amide]", "IC50": "< 300"},
      {"smiles": "CCC(OC(=O)c1ccc([N+](=O)[O-])cc1)(c1cn(Cc2ccn3c(-c4ccc(C)nc4)c(C(N)=O)cc3c2)nn1)C(F)(F)F", "note": "(single isomer, unassigned) [Compound 1-75, 4-Nitro-benzoic acid 1-{1-[2-carbamoyl-3-(6-methyl-pyridin-3-yl)-indolizin-7-ylmethyl]-1H-[1,2,3]triazol-4-yl}-1-trifluoromethyl-propyl ester]", "IC50": "> 1000"},
      {"smiles": "CCOC(=O)c1nc2cc(CNc3nnc(C(O)(CC)C(F)(F)F)o3)ccn2c1-c1ccccc1", "note": "(stereo not shown) [Compound 1-12, 7-{[5-(1-Hydroxy-1-trifluoromethyl-propyl)-[1,3,4]oxadiazol-2-ylamino]-methyl}-3-phenyl-imidazo[1,2-a]pyridine-2-carboxylic acid ethyl ester]", "IC50": "< 300"}
    ]}
  ]
}
